Results as given in ChEMBL document CHEMBL1131200, “Bis-quinolinium cyclophanes: 6,10-diaza-3(1,3),8(1,4)-dibenzena-1,5(1,4)- diquinolinacyclodecaphane (UCL 1684), the first nanomolar, non-peptidic blocker of the apamin-sensitive Ca(2+)-activated K+ channel” (J Med Chem, 1998).

Legend:
Rattus norvegicus [1] = species: Rattus norvegicus; test: The ratio of the conc of compound to dequalinium to cause 50% inhibition of the after hyperpolarization (AHP) in cultured rat sympathetic neurones; type: functional, Sympathetic neuron
Rattus norvegicus [2] = species: Rattus norvegicus; test: Compound was tested for SKCa blocking action by measuring its ability to inhibit after hyperpolarization (AHP) in cultured rat sympathetic neurones; type: functional; conditions: Sympathetic neuron

Row | Compound | IC50 (Rattus norvegicus [2]) [nM] | EMR (Rattus norvegicus [1])
1 | c1cc2cc(c1)C[n+]1ccc(c3ccccc31)NCc1ccc(cc1)CNc1cc[n+](c3ccccc13)C2 | 3 | 0.01
2 | c1ccc2c(c1)c1cc[n+]2Cc2ccc(cc2)Cc2ccc(cc2)C[n+]2ccc(c3ccccc32)NCc2ccc(cc2)Cc2ccc(cc2)CN1 | 260 | 0.31
3 | c1ccc2c(c1)c1cc[n+]2Cc2ccc(cc2)-c2ccc(cc2)C[n+]2ccc(c3ccccc32)NCc2ccc(cc2)Cc2ccc(cc2)CN1 | 150 | 0.26
4 | c1ccc2c(c1)c1cc[n+]2Cc2ccc(cc2)Cc2ccc(cc2)C[n+]2ccc(c3ccccc32)NCc2ccc(cc2)-c2ccc(cc2)CN1 | 280 | 0.8
5 | Cc1cc(N)c2ccccc2[n+]1CCCCCCCCCC[n+]1c(C)cc(N)c2ccccc21.[Cl-].[Cl-] [DEQUALINIUM CHLORIDE] | 570 | 1

Second part, led by results:

Row | IC50 (Rattus norvegicus [2]) [nM] | Compound | EMR (Rattus norvegicus [1])
6 | 70 | c1cc2cc(c1)CNc1cc[n+](c3ccccc13)Cc1ccc(cc1)C[n+]1ccc(c3ccccc31)NC2 | 0.18
7 | 130 | c1cc2cc(c1)CNc1cc[n+](c3ccccc13)Cc1cccc(c1)C[n+]1ccc(c3ccccc31)NC2 | 0.22
8 | 28 | c1ccc2c(c1)c1cc[n+]2Cc2ccc(cc2)C[n+]2ccc(c3ccccc32)NCc2ccc(cc2)CN1 | 0.05
